Records with an inconclusive call do not appear. Activity calls are given as the source filed them.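 How the source made its calls: active means Compounds that reduce signal, with fitted half-maximal dose at or under twice the top valid tested dose; inconclusive means Poor fit, or flat curve losing 30 to 70% of signal; inactive means Potency past limit, flat within 30%, or opposite direction.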
Experiment: viability loss in HEK293T cells – cell-based, ATP luminescence, cherry-pick samples, cytotoxicity control, dose response (AID 687005)
Settings: HEK293T viability, ATP luminescence (CellTiter-Glo), 48 h

Row | Compound | activity change, negative = cytotoxicity (at 26 µM (top of the series)) | other results
1 | C[C@H](CO)N1C[C@H](C)[C@@H](CN(C)S(=O)(=O)c2ccccc2)Oc2c(NC(=O)Nc3cccc4ccccc34)cccc2C1=O | 35.2% (inactive) | –
2 | Cc1ccc(S(=O)(=O)N[C@H]2CC[C@H](CCNC(=O)C3CCCC3)O[C@@H]2CO)cc1 | -7.25% (inactive) | –
3 | C#CCN(C(=O)c1ccc(OC2CCN(C(=O)CCOC)CC2)cc1)C1CCCCC1 | 8.74% (inactive) | –
4 | CC(C)CC#Cc1cnc2c(c1)C(=O)N([C@@H](C)CO)C[C@H](C)[C@H](CN(C)C(=O)c1ccc3c(c1)OCO3)O2 | 16.5% (inactive) | –
5 | C[C@H](CO)N1C[C@H](C)[C@H](CN(C)S(=O)(=O)c2cn(C)cn2)Oc2ncc(/C=C/c3ccccc3)cc2C1=O | 5.3% (inactive) | –
6 | CCNC(=O)CN(c1ccc(Cl)cc1)S(=O)(=O)c1ccccc1 | 4.12% (inactive) | –
7 | CCCN(C)C[C@H]1OCCCC[C@@H](C)Oc2ccc(NC(=O)NC(C)C)cc2C(=O)N([C@@H](C)CO)C[C@H]1C | -9.71% (inactive) | –
8 | CCNC(=O)CN(c1ccccc1)S(=O)(=O)c1ccc(Cl)cc1 | -16.3% (inactive) | –
9 | CCc1ccc(C(C)NC(=S)NCc2ccc(F)cc2)cc1 (stereo not given) | 17.2% (inactive) | –
10 | CC(C)NC(=O)N1CC[C@@H]2[C@@H](CO)N(C)c3ccc(-c4cccc(F)c4)cc3[C@@H]21 | – | activity change, negative = cytotoxicity (at 23.5 µM (top of the series)): 40.1% (inactive)
11 | CCc1ccc(NC(=O)C2NC(=O)CC2c2ccccc2)cc1 (stereo not given) | – | activity change, negative = cytotoxicity (at 42 µM (top of the series)): -46.7% (inactive)
12 | O=C(C[C@@H]1CC[C@@H]2[C@H](COC[C@H](O)CN2Cc2cccc(C(F)(F)F)c2)O1)NCc1ccccc1 | 4.02% (inactive) | –
13 | Cc1ccc(NC(=O)C2CCC(=O)N2)cc1C (stereo not given) | -5.26% (inactive) | –
14 | C[C@H]1CN([C@@H](C)CO)C(=O)Cc2cc(NC(=O)Nc3ccccc3)ccc2O[C@@H]1CN(C)C(=O)Nc1ccc2c(c1)OCO2 | – | activity change, negative = cytotoxicity (at 23.5 µM (top of the series)): -18.7% (inactive)
15 | CO[C@H]1CN(C)C(=O)c2ccc(NC(C)=O)cc2OC[C@H](C)N(C(=O)c2ccncc2)C[C@@H]1C | -20% (inactive) | –
16 | O=C(NC(=S)NCC1COc2ccccc2O1)c1ccc(Cl)cc1 (stereo not given) | – | activity change, negative = cytotoxicity (at 35 µM (top of the series)): -9.32% (inactive)
17 | C[C@@H]1CN([C@@H](C)CO)C(=O)c2cc(NS(=O)(=O)c3ccccc3)ccc2O[C@H]1CN(C)C(=O)NC1CCCCC1 | – | activity change, negative = cytotoxicity (at 23.5 µM (top of the series)): -17.7% (inactive)
18 | C[C@H]1CN([C@@H](C)CO)C(=O)c2cc(-c3ccc(F)cc3)cnc2O[C@@H]1CN(C)CC1CCCCC1 | -16.9% (inactive) | –
19 | COc1ccc(NC(=O)N(C)C[C@H]2OCCCC[C@@H](C)Oc3ccc(NC(=O)c4ccccc4)cc3C(=O)N([C@@H](C)CO)C[C@H]2C)cc1 | 7.8% (inactive) | –
20 | CNC[C@H]1Oc2c(NS(=O)(=O)c3cccs3)cccc2C(=O)N([C@H](C)CO)C[C@@H]1C | -26.9% (inactive) | –
21 | C[C@@H]1CCCCO[C@@H](CN(C)Cc2ccc3c(c2)OCO3)[C@@H](C)CN([C@H](C)CO)C(=O)c2cc(NS(=O)(=O)c3ccc(F)cc3)ccc2O1 | – | activity change, negative = cytotoxicity (at 23.5 µM (top of the series)): -35.2% (inactive)
22 | CCCNC(=O)C[C@@H]1CC[C@@H]2[C@H](COc3ccc(NC(=O)CCC)cc3C(=O)N2C)O1 | 52.7% (inactive) | –

Row | Compound | activity change, negative = cytotoxicity (at 26 µM (top of the series)) | other results
23 | CCC(C)(C(=O)Nc1cccc(C)c1)N1CCC1=O (stereo not given) | – | activity change, negative = cytotoxicity (at 46 µM (top of the series)): 0.095% (inactive)
24 | C[C@H]1CN([C@@H](C)CO)S(=O)(=O)c2ccc(Br)cc2O[C@@H]1CN(C)C(=O)CCN1CCCCC1 | 38.4% (inactive) | –
25 | Cc1c(C(=O)NC(=S)Nc2ccc(N3CCOCC3)cc2)cccc1[N+](=O)[O-] | -33.3% (inactive) | –
26 | C[C@@H]1CN([C@@H](C)CO)C(=O)c2cc(NS(=O)(=O)c3cn(C)cn3)ccc2O[C@@H](C)CCCCO[C@H]1CN(C)C | -1.98% (inactive) | –
27 | O=C(C[C@H]1CC[C@H]2[C@@H](COC[C@H](O)CN2C(=O)Nc2ccc3c(c2)OCO3)O1)N1CCN(c2ccccc2)CC1 | 5.63% (inactive) | –
28 | Cc1cc(Cl)ccc1NC(=S)NCc1ccc(F)cc1 | 6.1% (inactive) | –
29 | C[C@@H]1CN([C@H](C)CO)C(=O)c2cc(NC(=O)CCC(F)(F)F)ccc2O[C@@H](C)CCCCO[C@@H]1CN(C)C(=O)c1ccncc1 | – | activity change, negative = cytotoxicity (at 23.5 µM (top of the series)): -15.4% (inactive)
30 | C[C@@H]1CN([C@@H](C)CO)C(=O)Cc2cc(NC(=O)Nc3cccc4ccccc34)ccc2O[C@@H]1CN(C)Cc1ccc(C(=O)O)cc1 | 30.4% (inactive) | –
31 | C[C@@H]1CCCCO[C@H](CN(C)C(=O)CCCN(C)C)[C@@H](C)CN([C@H](C)CO)C(=O)c2cc(NC(=O)Cc3ccccc3)ccc2O1 | 5.89% (inactive) | –
32 | COc1ccc(NC(=O)Nc2ccc3c(c2)C(=O)N([C@@H](C)CO)C[C@@H](C)[C@H](CN(C)C(=O)Cc2ccccc2)OCCCC[C@H](C)O3)cc1 | -2.88% (inactive) | –
33 | CCC(=O)N[C@H]1C=C[C@@H](CC(=O)OC)O[C@@H]1CO | -29.7% (inactive) | –
34 | C[C@H](O)C#Cc1ccc([C@H]2[C@H](CO)N3CCCCN(CC4CCOCC4)C[C@@H]23)cc1 | 21.6% (inactive) | –
35 | COC(=O)C1=C(C)N(CC(C)C)C(=S)NC1c1ccc(Cl)cc1 (stereo not given) | – | activity change, negative = cytotoxicity (at 30 µM (top of the series)): -20.8% (inactive)
36 | CO[C@@H]1CN(C)C(=O)c2ccc(NC(C)=O)cc2OC[C@@H](C)N(C(=O)c2ccccn2)C[C@H]1C | – | activity change, negative = cytotoxicity (at 23.5 µM (top of the series)): 14.8% (inactive)
37 | NC(=O)CN(c1ccccc1)S(=O)(=O)c1ccc(F)cc1 | – | activity change, negative = cytotoxicity (at 30 µM (top of the series)): -2.68% (inactive)
38 | Cc1cccc(C)c1NC(=O)CN(C)C(=O)C1CCCCC1 | -11.8% (inactive) | –
39 | Cc1noc(C)c1NC(=O)N(C)C[C@H]1OCCCC[C@@H](C)Oc2ccc(NC(=O)NC(C)C)cc2C(=O)N([C@H](C)CO)C[C@H]1C | -10.9% (inactive) | –
40 | Cc1cc(C(=O)NC(=S)Nc2ccccc2N2CCCC2)ccc1[N+](=O)[O-] | -6.6% (inactive) | –
41 | Cc1cc(C)c2nc(N3CCN(C(=O)c4cccs4)CC3)sc2c1 | -19.8% (inactive) | –
42 | C[C@H](NC(=O)C[C@H]1CC[C@@H](NC(=O)Cc2ccccn2)[C@@H](CO)O1)c1ccccc1 | 25.6% (inactive) | –
43 | COCC(=O)N(C)C[C@@H]1Oc2ncc(C#CCC3CCCC3)cc2C(=O)N([C@@H](C)CO)C[C@H]1C | 1.81% (inactive) | –
44 | O=C(CSc1ncnc2c1cnn2-c1ccccc1)NC1CCS(=O)(=O)C1 (stereo not given) | 5% (inactive) | –

Row | Compound | activity change, negative = cytotoxicity (at 26 µM (top of the series)) | other results
45 | CCCN1C[C@@H](C)[C@H](OC)CN(C)C(=O)c2ccc(NC(=O)c3cccc(F)c3)cc2OC[C@@H]1C | -7.98% (inactive) | –
46 | CCCNC(=O)N1C[C@H](O)COC[C@H]2O[C@H](CC(=O)N3CCN(C)CC3)CC[C@@H]21 | -14.1% (inactive) | –
47 | CC(C)NC(=O)N(C)C[C@@H]1OCCCC[C@H](C)Oc2ccc(NC(=O)c3ccccc3)cc2C(=O)N([C@H](C)CO)C[C@H]1C | -12.5% (inactive) | –
48 | O=C(NC1CCCC1)N1CCCCN2[C@H](CO)[C@H](c3ccc(-c4cncnc4)cc3)[C@@H]2C1 | -34.7% (inactive) | –
49 | CO[C@H]1CN(C)C(=O)c2cc(NC(=O)C3CCOCC3)ccc2OC[C@@H](C)NC[C@H]1C | – | activity change, negative = cytotoxicity (at 23.5 µM (top of the series)): 41% (inactive)
50 | COc1ccc(CN(C)C[C@@H]2Oc3ccc(NC(=O)C4CC4)cc3C(=O)N([C@H](C)CO)C[C@H]2C)cc1 | 15.3% (inactive) | –
51 | CC(C)C(=O)N1CCC1(C)C(=O)Nc1ccccc1C(C)(C)C (stereo not given) | – | activity change, negative = cytotoxicity (at 38 µM (top of the series)): -4.57% (inactive)
52 | O=C(C[C@@H]1CC[C@H]2[C@@H](COC[C@H](O)CN2Cc2ccccc2F)O1)NC1CCC1 | -8.5% (inactive) | –
53 | Cc1cccc(C)c1NC(=O)C(CCc1ccccc1)N1CCC(c2ccccc2)CC1 (stereo not given) | -63.1% (inactive) | –
54 | C[C@@H]1CN([C@H](C)CO)S(=O)(=O)c2ccc(C#C[C@@H](C)O)cc2O[C@@H]1CN(C)Cc1ccncc1 | -20.8% (inactive) | –
55 | O=C(c1cccc(F)c1)N1CCCCN2[C@@H](CO)[C@H](c3ccc(-c4ccncc4)cc3)[C@@H]2C1 | 2.55% (inactive) | –
56 | COc1ccccc1-c1ccc([C@H]2[C@@H](C#N)N(C(=O)C3CC3)[C@@H]2CO)cc1 | – | activity change, negative = cytotoxicity (at 23.5 µM (top of the series)): 27.7% (inactive)
57 | CCC(=O)N(C)C[C@H]1Oc2cc(-c3ccccc3)ccc2S(=O)(=O)N([C@H](C)CO)C[C@H]1C | 6.53% (inactive) | –
58 | CCCC(=O)N1CCCC1(C)C(=O)Nc1cc(C)ccc1C (stereo not given) | 3.87% (inactive) | activity change, negative = cytotoxicity (at 42 µM (top of the series)): -20.6% (inactive)
59 | Cc1noc(C)c1S(=O)(=O)N(C)C[C@@H]1OCCCC[C@@H](C)Oc2ccc(NC(=O)CCCCCC(=O)Nc3ccccc3N)cc2C(=O)N([C@H](C)CO)C[C@@H]1C | 1.87% (inactive) | –
60 | Cc1ccccc1-n1ncc2c(SCC(=O)NCc3cccs3)ncnc21 | -48.1% (inactive) | –
61 | CCCC(=O)N1CCC1(C)C(=O)Nc1ccc(C)cc1 (stereo not given) | – | activity change, negative = cytotoxicity (at 46 µM (top of the series)): -12.7% (inactive)
62 | C[C@H]1CN([C@@H](C)CO)C(=O)c2cc(NC(=O)CCN3CCOCC3)ccc2O[C@@H]1CN(C)Cc1ccc(C(=O)O)cc1 | 36.2% (inactive) | –
63 | COc1ccccc1C#Cc1ccc2c(c1)O[C@H](CN(C)C(C)=O)[C@H](C)CN([C@@H](C)CO)S2(=O)=O | -7.15% (inactive) | –
64 | C[C@@H]1CN([C@@H](C)CO)C(=O)c2cc(/C=C/c3ccccc3)cnc2O[C@@H]1CN(C)S(C)(=O)=O | 10.2% (inactive) | –

From PubChem BioAssay AID687005 (Broad Institute, 2013)
